Results as given in US12161694B2, “Methods and compositions for regulating innate lymphoid cell inflammatory responses” (The Broad Institute, Inc., priority 2017, dated 2024).
“Also recorded” adds a separate entry of the source. Where no end group is shown, it is not given here.

Key:
lung-resident ILCs [1] = test: Flow cytometry of lung ILCs after in vivo treatment (Ki-67, ILC frequency, IL-17RB, surface and intracellular markers); design: species or system mouse
Description: Mice and in vivo ILC activation. C57Bl/6J mice were purchased from the Jackson Laboratory. Nmur1-LacZ reporter mice with a LacZ cassette knocked into the Nmur1 locus were rederived from Nmur1^tm1.1(KOMP)Vleg sperm obtained from the trans-NIH Knock-Out Mouse Project (KOMP) Repository. Mice were housed under specific-pathogen-free conditions. For experiments, mice were matched for sex and age, and most mice were 6-10 weeks old. Where indicated, mice were anesthetized with Isoflurane and treated intranasally with the indicated stimuli (500 ng IL-25, 500 ng IL-33, or 20 μg Neuromedin U) daily for three consecutive days. The total administered volume was 20 μl for all conditions. Mice were randomly assigned to treatment groups after matching for sex and age. […] Mice were treated intranasally with 10 μg HDM on day 0, 7, 8, and 9, prior to sacrifice on day 10. […]
Flow cytometry. […] Cells were stained on ice with antibodies for surface molecules and the live/dead marker 7AAD and analyzed on a LSRFortessa (BD Biosciences). […]
Lung analysis. […] BALF was centrifuged, and the supernatant was used for analyzing cytokine levels and the cell pellet was resuspended, counted, and used for flow cytometry. […] Where indicated, cells were diluted in 10% Trypan Blue and viable cells counted using a hemocytometer. […]

lung-resident ILCs [2] = test: Droplet-based scRNA-seq of lung-resident ILCs after in vivo treatment; design: species or system mouse; conditions: PBS, NMU, IL-25, combination
Description: Mice and in vivo ILC activation. C57Bl/6J mice were purchased from the Jackson Laboratory. Nmur1-LacZ reporter mice with a LacZ cassette knocked into the Nmur1 locus were rederived from Nmur1^tm1.1(KOMP)Vleg sperm obtained from the trans-NIH Knock-Out Mouse Project (KOMP) Repository. Mice were housed under specific-pathogen-free conditions. For experiments, mice were matched for sex and age, and most mice were 6-10 weeks old. Where indicated, mice were anesthetized with Isoflurane and treated intranasally with the indicated stimuli (500 ng IL-25, 500 ng IL-33, or 20 μg Neuromedin U) daily for three consecutive days. The total administered volume was 20 μl for all conditions. Mice were randomly assigned to treatment groups after matching for sex and age. […]
Fluorescence-activated cell sorting of innate lymphoid cells. […]
Analysis of droplet-based scRNA-Seq data: Initial QC. Gene counts were obtained by aligning reads to the mm10 genome using CellRanger software (10× Genomics), with the genome reannotated at the 3′ end of Nmur1 (see main text). […]
Analysis of droplet-based scRNA-Seq samples: Signature scores. Applicants calculated signature scores as the log of the geometric mean of the TPX values for the genes in the signature. […] Then the signature score for that cell is calculated as log(IIg(xg+1)^1/m) which is equivalent to the arithmetic mean of the log TPX values. […]

Neuromedin U (FRVDEEFQSPFASQSRGYFLFRPRN-NH2; listed as Homo sapiens) [NMU, neuropeptide ligand of Nmur1 (US Biological)]
Galectin-3 (Lgals3) and gp49 (Lilrb4a) expression on ILCs (lung-resident ILCs [1]): up-regulated
transcriptional profiles of ILCs (tSNE localization) (lung-resident ILCs [2]): largely localized with those from control mice; also recorded: transcriptionally similar to control ILCs
